In paper PMC5081701, “Identification of New Structural Fragments for the Design of Lactate Dehydrogenase A Inhibitors” (Acta Naturae, 2016) one finds IC50 data, which are given here for one compound.

For orientation: IC50 means the point on the concentration scale where inhibition reaches its midpoint. Lower therefore signals higher potency.

This assay addresses T1, LDH from rabbit muscle (LDH-A) (Oryctolagus cuniculus, UniProt P13491).
T1 construct: gene LDHA; native commercial enzyme from rabbit muscle (Sigma-Aldrich), homotetramer
Description: spectrophotometric NADH absorbance decrease at […] nm, initial rate. It counts as biochemical.

`O=S(=O)(O)CCSc1nc2ccccc2s1` [compound 4, 2-(benzothiazol-2-ylsulfanyl)-ethanesulfonate]: 1.2 mM corresponded to half-maximal inhibition (IC50).
